Data reported in article PMC6078345, “Location and functions of Inebriated in the Drosophila eye” (Biology Open, 2018).

Molecular target: T1, Ine-P1 (Inebriated long isoform; Ine-P1::GFP, Ine-P1-EGFP) (Drosophila melanogaster, UniProt Q9VR07)
T1 construct: full-length long isoform, GFP/EGFP fusion, cRNA in Xenopus laevis oocytes; 943 aa
T1 sequence (Q9VR07 1-943): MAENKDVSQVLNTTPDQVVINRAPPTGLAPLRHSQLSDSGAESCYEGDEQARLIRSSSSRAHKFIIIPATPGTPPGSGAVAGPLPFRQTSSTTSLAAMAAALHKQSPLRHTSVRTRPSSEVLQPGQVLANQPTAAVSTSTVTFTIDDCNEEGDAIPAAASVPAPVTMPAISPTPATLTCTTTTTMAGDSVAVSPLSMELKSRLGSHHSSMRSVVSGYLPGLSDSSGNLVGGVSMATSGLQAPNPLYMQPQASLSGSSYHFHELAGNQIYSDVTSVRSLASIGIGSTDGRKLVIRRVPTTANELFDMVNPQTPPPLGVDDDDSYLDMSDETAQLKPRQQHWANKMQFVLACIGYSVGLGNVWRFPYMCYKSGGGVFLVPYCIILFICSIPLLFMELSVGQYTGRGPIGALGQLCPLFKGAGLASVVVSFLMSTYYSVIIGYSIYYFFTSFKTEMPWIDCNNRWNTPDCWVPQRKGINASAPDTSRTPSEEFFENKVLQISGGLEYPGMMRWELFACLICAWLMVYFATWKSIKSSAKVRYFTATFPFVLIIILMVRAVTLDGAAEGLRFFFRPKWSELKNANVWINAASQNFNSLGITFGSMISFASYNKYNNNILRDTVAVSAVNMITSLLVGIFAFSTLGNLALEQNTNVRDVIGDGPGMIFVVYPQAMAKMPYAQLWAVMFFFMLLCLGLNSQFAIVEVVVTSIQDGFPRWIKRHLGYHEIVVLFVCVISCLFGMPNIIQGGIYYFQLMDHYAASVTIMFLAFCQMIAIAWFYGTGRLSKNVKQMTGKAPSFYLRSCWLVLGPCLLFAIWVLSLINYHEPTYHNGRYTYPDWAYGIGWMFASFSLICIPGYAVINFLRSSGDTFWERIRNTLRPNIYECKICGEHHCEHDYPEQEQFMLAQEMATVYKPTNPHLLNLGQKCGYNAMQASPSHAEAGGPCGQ
Assay: voltage-clamp current in Xenopus oocytes
Assay type: cell-based
Conditions: normal frog Ringer, -100 mV; dose-dependent current, 7 to 100 mM; few oocytes; transport only suggested

NCC(=O)O [glycine]
voltage-clamp current in Xenopus oocytes: glycine on Ine-P1-EGFP transfected oocytes revealed an obvious dose-dependent signal
